This note sets out measurements from patent US20250215029A1 (Recludix Pharma, Inc., priority 2022, published 2025).

One experiment addresses T1, pY641-STAT6 in PBMC (Homo sapiens, UniProt P42226).
T1 construct: Cryopreserved Peripheral Blood Mononuclear Cells (PBMC) are from AllCells; host or cells: cryopreserved PBMC
T1 sequence (P42226 1-847): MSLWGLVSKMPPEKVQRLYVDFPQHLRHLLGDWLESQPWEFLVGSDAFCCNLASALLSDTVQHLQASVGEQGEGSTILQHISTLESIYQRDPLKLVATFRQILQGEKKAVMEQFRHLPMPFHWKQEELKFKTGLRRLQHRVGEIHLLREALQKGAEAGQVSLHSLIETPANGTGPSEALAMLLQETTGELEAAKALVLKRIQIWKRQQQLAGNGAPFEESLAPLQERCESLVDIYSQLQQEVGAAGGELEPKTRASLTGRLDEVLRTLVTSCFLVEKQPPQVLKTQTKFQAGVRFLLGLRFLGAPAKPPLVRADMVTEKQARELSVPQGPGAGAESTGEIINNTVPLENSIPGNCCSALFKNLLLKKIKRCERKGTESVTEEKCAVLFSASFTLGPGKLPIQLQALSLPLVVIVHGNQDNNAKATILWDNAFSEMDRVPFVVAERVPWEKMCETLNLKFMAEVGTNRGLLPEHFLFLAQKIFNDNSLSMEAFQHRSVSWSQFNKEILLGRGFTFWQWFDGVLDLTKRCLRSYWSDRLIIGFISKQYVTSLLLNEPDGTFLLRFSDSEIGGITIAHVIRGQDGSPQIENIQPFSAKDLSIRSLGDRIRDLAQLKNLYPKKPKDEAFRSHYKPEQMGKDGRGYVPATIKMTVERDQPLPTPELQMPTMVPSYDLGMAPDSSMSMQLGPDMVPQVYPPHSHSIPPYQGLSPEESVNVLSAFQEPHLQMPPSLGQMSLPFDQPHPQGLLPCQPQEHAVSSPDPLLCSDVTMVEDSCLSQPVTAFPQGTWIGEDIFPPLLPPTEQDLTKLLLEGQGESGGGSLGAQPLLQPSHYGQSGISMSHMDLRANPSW
Nature of the experiment: MSD-pSTAT-PBMC Assay (pSTAT6, IL-4 stimulated). In kind it is cell-based. The following applies: PBMC, compound 3 hrs, then 1 ng/mL IL-4 for 10 min; Table 115; read-out: STAT6. The essentials: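 Inhibition of cytokine-induced STAT phosphorylation was measured in recovered human PBMC after 3 hrs compound exposure and a 10 min IL-4 (1 ng/mL) or IL-6 (10 ng/mL) challenge. MSD detection of pY641-STAT6 or pY705-STAT3 yielded IC50 values.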
As for `CCCOC(=O)[C@H](C)NP(=O)(Oc1ccccc1)[C@@H](F)c1ccc2sc(C(=O)N[C@H]3CCC[C@H]4CC[C@@H](C(=O)N5C[C@H](c6ccc(C)cc6)[C@@H](C#N)C56CC6)N4C3=O)cc2c1` (stereo partly shown) [Compound 479], the IC50 was less than 100 nM.

Staying with this experiment, now noted: STAT6, PBMC, compound 3 hrs, then 1 ng/mL IL-4 for 10 min; Table 115.
`CCC(CC)COC(=O)[C@H](C)NP(=O)(Oc1ccccc1)[C@@H](F)c1ccc2sc(C(=O)N[C@H]3CCCC[C@H]4CC[C@@H](C(=O)N5C[C@@H](c6cccnc6)CC56CC6)N4C3=O)cc2c1` (stereo partly drawn) [Compound 471, 2-ethylbutyl (((R)-fluoro(2-(((3S,6S,10aS)-5-oxo-3-((R)-6-(pyridin-3-yl)-4-azaspiro[2.4]heptane-4-carbonyl)decahydropyrrolo[1,2-a]azocin-6-yl)carbamoyl)benzo [b]thiophen-5-yl)methyl)(phenoxy)phosphoryl)-L-alaninate] registered an IC50 of less than 100 nM.

With `C[C@H](NP(=O)(Oc1ccccc1)[C@@H](F)c1ccc2sc(C(=O)N[C@H]3CCCC[C@H]4CC[C@@H](C(=O)N5C[C@@H](c6cccnc6)CC56CC6)N4C3=O)cc2c1)C(=O)OCc1ccccc1` (stereo partly drawn) [Compound 472, benzyl (((R)-fluoro(2-(((3S,6S,10aS)-5-oxo-3-((R)-6-(pyridin-3-yl)-4-azaspiro[2.4]heptane-4-carbonyl)decahydropyrrolo[1,2-a]azocin-6-yl)carbamoyl)benzo [b]thiophen-5-yl)methyl)(phenoxy)phosphoryl)-L-alaninate], the IC50 was less than 100 nM.

With `CCCOC(=O)[C@H](C)NP(=O)(Oc1ccccc1)C(F)c1ccc2sc(C(=O)N[C@H]3CCCC[C@H]4CC[C@@H](C(=O)N5C(=O)N(c6cncc(F)c6)C(=O)C56CC6)N4C3=O)cc2c1` (stereo partly drawn) [Compound 473, propyl ((fluoro(2-(((3S,6S,10aS)-3-(6-(5-fluoropyridin-3-yl)-5,7-dioxo-4,6-diazaspiro[2.4]heptane-4-carbonyl)-5-oxodecahydropyrrolo [1,2-a]azocin-6-yl)carbamoyl)benzo [b]thiophen-5-yl)methyl)(phenoxy)phosphoryl)-L-alaninate], the IC50 was more than 3000 nM.

As for `CC(C)OC(=O)[C@H](C)NP(=O)(Oc1ccccc1)[C@@H](F)c1ccc2sc(C(=O)N[C@H]3CCCC[C@H]4CC[C@@H](C(=O)N5C[C@@H](c6cccnc6)CC56CC6)N4C3=O)cc2c1` (stereo partly drawn) [Compound 474, isopropyl (((R)-fluoro(2-(((3S,6S,10aS)-5-oxo-3-((R)-6-(pyridin-3-yl)-4-azaspiro[2.4]heptane-4-carbonyl)decahydropyrrolo[1,2-a]azocin-6-yl)carbamoyl)benzo [b]thiophen-5-yl)methyl)(phenoxy)phosphoryl)-L-alaninate], the IC50 was less than 100 nM.

Regarding `CC(C)OC(=O)[C@H](C)NP(=O)(Cc1ccc2sc(C(=O)N[C@H]3CCCC[C@H]4CC[C@@H](C(=O)N5C[C@@H](c6cccnc6)CC56CC6)N4C3=O)cc2c1)Oc1ccccc1` (stereo partly drawn) [Compound 475, isopropyl (((2-(((3S,6S,10aS)-5-oxo-3-((R)-6-(pyridin-3-yl)-4-azaspiro[2.4]heptane-4-carbonyl)decahydropyrrolo[1,2-a]azocin-6-yl)carbamoyl)benzo [b]thiophen-5-yl)methyl)(phenoxy)phosphoryl)-L-alaninate], the IC50 was 100 to 1000 nM.

`CCCOC(=O)[C@H](C)NP(=O)(Cc1ccc2sc(C(=O)N[C@H]3CCCC[C@H]4CC[C@@H](C(=O)N5C[C@@H](c6cccnc6)CC56CC6)N4C3=O)cc2c1)Oc1ccccc1` (stereo partly drawn) [Compound 476, propyl (((2-(((3S,6S,10aS)-5-oxo-3-((R)-6-(pyridin-3-yl)-4-azaspiro[2.4]heptane-4-carbonyl)decahydropyrrolo[1,2-a]azocin-6-yl)carbamoyl)benzo [b]thiophen-5-yl)methyl)(phenoxy)phosphoryl)-L-alaninate]: the IC50 was less than 100 nM.

Take `C[C@H](NP(=O)(Oc1ccccc1)[C@@H](F)c1ccc2sc(C(=O)N[C@H]3CCCC[C@H]4CC[C@@H](C(=O)N5C[C@@H](c6cccnc6)CC56CC6)N4C3=O)cc2c1)C(=O)OCC(C)(C)C` (stereo partly drawn) [Compound 477, neopentyl (((R)-fluoro(2-(((3S,6S,10aS)-5-oxo-3-((R)-6-(pyridin-3-yl)-4-azaspiro[2.4]heptane-4-carbonyl)decahydropyrrolo[1,2-a]azocin-6-yl)carbamoyl)benzo [b]thiophen-5-yl)methyl)(phenoxy)phosphoryl)-L-alaninate]: the IC50 is less than 100 nM.

`COCCOC(=O)[C@H](C)NP(=O)(Oc1ccccc1)[C@@H](F)c1ccc2sc(C(=O)N[C@H]3CCC[C@H]4CC[C@@H](C(=O)N5C[C@@H](c6cccnc6)CC56CC6)N4C3=O)cc2c1` (stereo partly drawn) [Compound 480, 2-methoxyethyl (((R)-fluoro(2-(((3S,6S,9aS)-5-oxo-3-((R)-6-(pyridin-3-yl)-4-azaspiro[2.4]heptane-4-carbonyl)octahydro-1H-pyrrolo[1,2-a]azepin-6-yl)carbamoyl)benzo [b]thiophen-5-yl)methyl)(phenoxy)phosphoryl)-L-alaninate] displayed an IC50 of less than 100 nM.

On to `CCCOC(=O)[C@H](C)NP(=O)(Oc1c(C)cccc1C)[C@@H](F)c1ccc2sc(C(=O)N[C@H]3CCC[C@H]4CC[C@@H](C(=O)N5C[C@@H](c6cccnc6)CC56CC6)N4C3=O)cc2c1` (stereo partly drawn) [Compound 481, propyl ((2,6-dimethylphenoxy) ((R)-fluoro(2-(((3S,6S,9aS)-5-oxo-3-((R)-6-(pyridin-3-yl)-4-azaspiro[2.4]heptane-4-carbonyl)octahydro-1H-pyrrolo[1,2-a]azepin-6-yl)carbamoyl)benzo [b]thiophen-5-yl)methyl)phosphoryl)-L-alaninate], for which the IC50 is less than 100 nM.

For `CCCOC(=O)[C@H](C)NP(=O)(Cc1ccc2sc(C(=O)N[C@H]3CCC[C@H]4CC[C@@H](C(=O)N5C[C@@H](c6ccccc6)[C@H](C#N)C56CC6)N4C3=O)cc2c1)Oc1ccccc1` (stereo partly drawn) [Compound 486, propyl (((2-(((3S,6S,9aS)-3-((6R,7S)-7-cyano-6-phenyl-4-azaspiro[2.4]heptane-4-carbonyl)-5-oxooctahydro-1H-pyrrolo[1,2-a]azepin-6-yl)carbamoyl)benzo [b]thiophen-5-yl)methyl)(phenoxy)phosphoryl)-L-alaninate], the IC50 was less than 100 nM.

Take `CCCOC(=O)[C@@H]1CCCN1P(=O)(Oc1ccccc1)[C@H](F)c1ccc2sc(C(=O)N[C@H]3CCC[C@H]4CC[C@@H](C(=O)N5C[C@H](c6ccccc6)[C@@H](C#N)C56CC6)N4C3=O)cc2c1` (stereo partly drawn) [Compound 487, propyl (((S)-(2-(((3S,6S,9aS)-3-((6S,7R)-7-cyano-6-phenyl-4-azaspiro[2.4]heptane-4-carbonyl)-5-oxooctahydro-1H-pyrrolo[1,2-a]azepin-6-yl)carbamoyl)benzo [b]thiophen-5-yl)fluoromethyl) (phenoxy)phosphoryl)-L-prolinate]: the IC50 is 1000 to 3000 nM.

In the case of `CCCOC(=O)[C@@H]1CCN1P(=O)(Oc1ccccc1)[C@H](F)c1ccc2sc(C(=O)N[C@H]3CCC[C@H]4CC[C@@H](C(=O)N5C[C@H](c6ccccc6)[C@@H](C#N)C56CC6)N4C3=O)cc2c1` (stereo partly drawn) [Compound 488, propyl (2S)-1-(((S)-(2-(((3S,6S,9aS)-3-((6S,7R)-7-cyano-6-phenyl-4-azaspiro[2.4]heptane-4-carbonyl)-5-oxooctahydro-1H-pyrrolo[1,2-a]azepin-6-yl)carbamoyl)benzo [b]thiophen-5-yl)fluoromethyl) (phenoxy)phosphoryl) azetidine-2-carboxylate], the IC50 lay in the range of 1000 to 3000 nM.
